{"source": "patent US20250134855A1", "about": "“CO[…] AND METHODS OF USING SAME” (LYKOS THERAPEUTICS, INC., priority 2022, published 2025)", "key": {"[1]": {"experiment": "Particle size of MDMA measured by laser diffraction", "type": "physicochemical"}, "[2]": {"conditions": "cited from earlier work"}, "[3]": {"conditions": "paroxetine 20 mg a day for three days; single 100 mg dose of MDMA; cited from earlier work"}, "[4]": {"test_system": "healthy individuals", "experiment": "Study MPKF: safety and tolerability (AEs, laboratory, vital signs)", "type": "in vivo, human", "text": "(§1) The MPKF was a Phase 1, open-label, randomized sequence, multi-dose, 2-period crossover food effect study in 16 healthy individuals. The MPKF study evaluated plasma concentrations of both MDMA and the active metabolite 3,4-methylenedioxyamphetamine (MDA). Summary PK Parameters of the preliminary data was based on interim analysis are presented in Table 12 Table 12 Table 12, and Table 13 Table 13 Table 13 for MDMA and MDA, respectively.\n(§2) Participants remained at the clinical research unit (CRU) for each Dosing Session from the time of check-in on the night before dosing until discharge 48 hours after dosing for collection of serial blood samples for PK analysis and safety monitoring. IMP was administered on Day 1 following the treatment sequence to which the participant was randomized. An additional outpatient visit occurred 72 hours after dosing to collect a final PK sample, commensurate with the expected PK profiles of MDMA and MDA. Safety assessments were also performed at this visit.\n(§3) The washout period between Dosing Sessions was at least 14 days. If a participant experienced emesis within 4 hours of administration, they were to be withdrawn from the study and replaced with a new participant. An End of Study Visit was performed 2 to 10 days after the completion of the final Dosing Session 72-hour follow-up. An informal interim analysis was planned to be conducted after at least 5 participants completed at least 1 Dosing Session to examine PK variability."}, "[5]": {"target": "CYP2D6 (Homo sapiens, UniProt P10635)", "sequence (P10635 whole entry)": "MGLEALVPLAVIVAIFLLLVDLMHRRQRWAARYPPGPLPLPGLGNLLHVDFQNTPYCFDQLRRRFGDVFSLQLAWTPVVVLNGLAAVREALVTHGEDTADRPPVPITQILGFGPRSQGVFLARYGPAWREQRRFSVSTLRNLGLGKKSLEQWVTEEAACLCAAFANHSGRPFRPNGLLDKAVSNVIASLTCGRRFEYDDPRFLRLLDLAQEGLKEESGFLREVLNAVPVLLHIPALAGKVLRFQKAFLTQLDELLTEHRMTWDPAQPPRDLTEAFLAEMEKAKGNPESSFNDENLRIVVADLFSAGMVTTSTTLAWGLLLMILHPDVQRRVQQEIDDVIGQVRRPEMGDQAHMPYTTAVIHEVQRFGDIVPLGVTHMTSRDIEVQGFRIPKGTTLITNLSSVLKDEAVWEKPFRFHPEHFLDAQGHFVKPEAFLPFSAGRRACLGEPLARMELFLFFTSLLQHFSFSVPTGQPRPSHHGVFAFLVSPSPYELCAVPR", "experiment": "CYP2D6 inhibition"}, "[6]": {"experiment": "Forced degradation and storage stability of MDMA·HCl API", "type": "physicochemical", "text": "The crystalline, anhydrous form (Form 1) of MDMA·HCl is used for clinical development and commercialization purpose.\nThe long-term chemical stability of MDMA·HCl, Form I appears in FIG. 9 and FIG. 10."}, "[7]": {"test_system": "CYPs", "experiment": "CYP induction and inhibition of CYPs other than CYP2D6"}, "[8]": {"test_system": "healthy subjects", "experiment": "QTc interval, randomized crossover study", "type": "in vivo, human", "procedure": "The effect of MDMA·HCl on the QTc interval was evaluated in a randomized, crossover study in N healthy subjects."}, "[9]": {"experiment": "Study MPKF: plasma pharmacokinetics of MDMA and MDA, single 120 mg MDMA·HCl, fasted/fed", "type": "in vivo, human", "conditions": "for Vd: read-out: volume of distribution", "text": "as §1\nParticipants were randomized to receive 1 of 2 conditions before the other: • Fasted Treatment: at least 10 hours of fasting followed by administration of MDMA HCl with 240 mL water. • Fed Treatment: at least 10 hours of fasting followed by a high-fat (approximately 50% of total caloric content of the meal) and high-calorie (approximately 800 to 1000 calories) meal was consumed within 30 minutes prior to IMP administration.\nas §2, §3\nThe API was a white crystalline powder of pharmaceutical quality, made according to current Good Manufacturing Practices (cGMP) for human use.\nParticipants: Sixteen healthy individuals were recruited for the study.\nIntervention: The study was conducted as a Phase 1, open-label, randomized sequence, multi-dose, 2-period crossover food effect study. Each participant received multiple doses of MDMA, and plasma concentrations of both MDMA and the active metabolite MDA were measured.\nSample Collection: Blood samples were collected at various time points up to 72 hours after dosing. The samples were analyzed using validated liquid chromatography-tandem mass spectrometry (LC-MS/MS) methods.\nData Analysis: The summary PK parameters were presented in Table 12 for MDMA and Table 13 for MDA. The data were analyzed using descriptive statistics, and the mean and standard deviation were calculated. The results were compared between the two periods and analyzed for food effects. Statistical analyses were performed using appropriate methods, such as analysis of variance (ANOVA) and paired t-tests. A p-value of less than 0.05 was considered statistically significant."}, "[10]": {"experiment": "Stress-tests of thermal stability of MDMA·HCl", "conditions": "70-80° C."}, "[11]": {"experiment": "Solubility and permeability of MDMA·HCl"}}, "note": "Structures can show the parent of a compound that is named as a salt. Where two headings read alike, the source gives them in different places."}
{"smiles": "CNC(C)Cc1ccc2c(c1)OCO2.Cl", "note": "(stereo not drawn) [CJS194-5]", "values": [{"measurement": "Dv10", "setting": "[1]", "result": 23.4, "unit": "μm"}, {"measurement": "Dv50", "setting": "[1]", "result": 151, "unit": "μm"}, {"measurement": "Dv90", "setting": "[1]", "result": 341, "unit": "μm"}]}
{"smiles": "CNC(C)Cc1ccc2c(c1)OCO2.Cl", "note": "(stereo not drawn) [CJS194-1]", "values": [{"measurement": "Dv10", "setting": "[1]", "result": 29.0, "unit": "μm"}, {"measurement": "Dv50", "setting": "[1]", "result": 170, "unit": "μm"}, {"measurement": "Dv90", "setting": "[1]", "result": 342, "unit": "μm"}]}
{"smiles": "CNC(C)Cc1ccc2c(c1)OCO2.Cl", "note": "(stereo not drawn) [CJS194-3]", "values": [{"measurement": "Dv10", "setting": "[1]", "result": 20.9, "unit": "μm"}, {"measurement": "Dv50", "setting": "[1]", "result": 134, "unit": "μm"}, {"measurement": "Dv90", "setting": "[1]", "result": 326, "unit": "μm"}]}
{"smiles": "CNC(C)Cc1ccc2c(c1)OCO2.Cl", "note": "(stereo not drawn) [CJS194-4]", "values": [{"measurement": "Dv10", "setting": "[1]", "result": 23.8, "unit": "μm"}, {"measurement": "Dv50", "setting": "[1]", "result": 161, "unit": "μm"}, {"measurement": "Dv90", "setting": "[1]", "result": 353, "unit": "μm"}]}
{"smiles": "CNC(C)Cc1ccc2c(c1)OCO2.Cl", "note": "(stereo not drawn) [Form III]", "values": [{"measurement": "time to spontaneous conversion to Form I", "setting": "[2]; storage at ambient conditions", "result": 2.5, "unit": "weeks"}]}
{"smiles": "Fc1ccc([C@@H]2CCNC[C@H]2COc2ccc3c(c2)OCO3)cc1", "note": "[Paroxetine, reference compound]", "values": [{"measurement": "increase of AUC0-inf of MDMA", "setting": "[3]", "result": 27, "unit": "%"}, {"measurement": "increase of Cmax of MDMA", "setting": "[3]", "result": 17, "unit": "%"}]}
{"smiles": "CNC(C)Cc1ccc2c(c1)OCO2.Cl", "note": "(stereo not drawn) [CJS194-2]", "values": [{"measurement": "Dv10", "setting": "[1]", "result": 20.0, "unit": "μm"}, {"measurement": "Dv50", "setting": "[1]", "result": 135, "unit": "μm"}, {"measurement": "Dv90", "setting": "[1]", "result": 326, "unit": "μm"}]}
{"smiles": "CNC(C)Cc1ccc2c(c1)OCO2", "note": "(stereo not drawn) [MDMA·HCl, MDMA hydrochloride]", "values": [{"measurement": "participants with nausea and vomiting", "setting": "[4]; fasted session", "result": 12.5, "unit": "%"}, {"measurement": "SAEs and AESI", "setting": "[4]; in vivo", "result": "No SAEs nor AESI were reported"}, {"measurement": "overall tolerability", "setting": "[4]; single dose of 120 mg MDMA HCl", "result": "well tolerated"}, {"measurement": "participants reporting TEAEs", "setting": "[4]; single dose of 120 mg MDMA HCl", "result": 37.5, "unit": "%"}, {"measurement": "participants with headache", "setting": "[4]; single dose of 120 mg MDMA HCl", "result": 31.3, "unit": "%"}, {"measurement": "CYP2D6 inhibition", "setting": "[5]", "result": "strong CYP2D6 inhibitor"}, {"measurement": "time over which long term chemical stability remains constant", "setting": "[6]; 25 degrees celsius at 60% RH, no change in appearance or increase in degradation products", "result": "up to 60 months"}, {"measurement": "forced degradation", "setting": "[6]; 7 days (FIG. 8)", "result": "minimal degradation"}, {"measurement": "time over which chemical stability is not affected", "setting": "[6]; higher humidity and temperature, 40 degrees celsius at 75% RH (FIG. 11)", "result": "up to 12 months"}, {"measurement": "induction of CYPs", "setting": "[7]", "result": "not an inducer of CYPs"}, {"measurement": "inhibition of CYPs other than CYP2D6", "setting": "[7]; human", "result": "did not inhibit CYPs other than CYP2D6 in a clinically meaningful manner"}, {"measurement": "increase in heart rate", "setting": "[8]; healthy subjects", "result": "> 10", "unit": "bpm"}, {"measurement": "QTc prolongation", "setting": "[8]; therapeutic dose, totality of nonclinical and clinical data", "result": "lack of clinically relevant QTc prolongation"}, {"measurement": "effect of food on exposure", "setting": "[9]; high-fat meal vs fasting, single 120 mg MDMA·HCl", "result": "not affected by food"}, {"measurement": "half-life", "setting": "[9]; human, plasma, oral, 120 mg, single 120 mg dose of MDMA·HCl, fasting, read-out: t1/2 (converted)", "result": 9, "unit": "h"}, {"measurement": "Vd", "setting": "[9]; human, plasma, oral, single 100 mg dose of MDMA·HCl", "result": 372, "unit": "L"}, {"measurement": "Vd", "setting": "[9]; human, plasma, oral, single 120 mg dose of MDMA·HCl", "result": 430, "unit": "L"}, {"measurement": "stability in stress-tests, duration", "setting": "[10]", "result": 72, "unit": "h"}, {"measurement": "solubility", "setting": "[11]", "result": "high"}, {"measurement": "permeability", "setting": "[11]; not told", "result": "high"}]}
{"smiles": "CNC(C)Cc1ccc2c(c1)OCO2.Cl", "note": "(stereo not drawn) [Input 201101]", "values": [{"measurement": "Dv10", "setting": "[1]", "result": 376, "unit": "μm"}, {"measurement": "Dv50", "setting": "[1]", "result": 512, "unit": "μm"}, {"measurement": "Dv90", "setting": "[1]", "result": 844, "unit": "μm"}]}
{"smiles": "CNC(C)Cc1ccc2c(c1)OCO2.Cl", "note": "(stereo not drawn) [Form I]", "values": [{"measurement": "relative stability of Forms I-III", "setting": "[2]; polymorphic screening", "result": "most stable of Forms I-III"}]}
